# Assay results reported in PubChem BioAssay (NCI).
#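 GI50 is the concentration that inhibits growth by half. TGI: total growth inhibition.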
# Tests used:
# Experiment in all cases: NCI-60 cell line screen, 384-well format
# [1] = test system: 786-0 renal
# [2] = test system: A498 renal
# [3] = test system: A549 NSCLC
# [4] = test system: ACHN renal
# [5] = test system: BT-549 breast
# [6] = test system: CAKI-1 renal
# [7] = test system: CCRF-CEM leukemia
# [8] = test system: COLO 205 colon
# [9] = test system: DU-145 prostate
# [10] = test system: EKVX NSCLC
# [11] = test system: HCC-2998 colon
# [12] = test system: HCT-116 colon
# [13] = test system: HCT-15 colon
# [14] = test system: HL-60(TB) leukemia
# [15] = test system: HOP-62 NSCLC
# [16] = test system: HOP-92 NSCLC
# [17] = test system: HS 578T breast
# [18] = test system: HT29 colon
# [19] = test system: IGROV1 ovarian
# [20] = test system: KM12 colon
# [21] = test system: LOX IMVI melanoma
# [22] = test system: M14 melanoma
# [23] = test system: MALME-3M melanoma
# [24] = test system: MCF7 breast
# [25] = test system: MDA-MB-231 breast
# [26] = test system: MDA-MB-435 melanoma
# [27] = test system: MDA-MB-468 breast
# [28] = test system: MOLT-4 leukemia
# [29] = test system: NCI-H226 lung
# [30] = test system: NCI-H23 lung
# [31] = test system: NCI-H322M lung
# [32] = test system: NCI-H460 NSCLC
# [33] = test system: NCI-H522 lung
# [34] = test system: NCI/ADR-RES ovarian
# [35] = test system: OVCAR-3 ovarian
# [36] = test system: OVCAR-4 ovarian
# [37] = test system: OVCAR-5 ovarian
# [38] = test system: OVCAR-8 ovarian
# [39] = test system: PC-3 prostate
# [40] = test system: RPMI-8226 leukemia
# [41] = test system: RXF 393 renal
# [42] = test system: SF-268 CNS
# [43] = test system: SF-295 CNS
# [44] = test system: SF-539 CNS
# [45] = test system: SK-MEL-28 melanoma
# [46] = test system: SK-MEL-5 melanoma
# [47] = test system: SK-OV-3 ovarian
# [48] = test system: SN12C renal
# [49] = test system: SNB-19 CNS
# [50] = test system: SNB-75 CNS
# [51] = test system: SR leukemia
# [52] = test system: SW-620 colon
# [53] = test system: T-47D breast
# [54] = test system: TK-10 renal
# [55] = test system: U251 glioblastoma
# [56] = test system: UACC-257 melanoma
# [57] = test system: UACC-62 melanoma
# [58] = test system: UO-31 renal
structure (smiles),measurement,setting,value
CC(O)c1cc(C(=O)N[C@@H](C)Cn2ccc(-c3ccc(C#N)c(Cl)c3)n2)n[nH]1 (stereo partly specified),GI50,[1],> 100 µM
same,TGI,[1],> 100 µM
same,GI50,[2],> 100 µM
same,TGI,[2],> 100 µM
same,GI50,[3],> 93.4 µM
same,TGI,[3],> 100 µM
same,GI50,[4],> 46.4 µM
same,TGI,[4],> 69.6 µM
same,GI50,[5],36.7 µM
same,TGI,[5],98.6 µM
same,GI50,[6],> 88.3 µM
same,TGI,[6],> 100 µM
same,GI50,[7],31.5 µM
same,TGI,[7],> 100 µM
same,GI50,[8],> 82.6 µM
same,TGI,[8],> 100 µM
same,GI50,[9],> 100 µM
same,TGI,[9],> 100 µM
same,GI50,[10],34.8 µM
same,TGI,[10],> 100 µM
same,GI50,[11],> 100 µM
same,TGI,[11],> 100 µM
same,GI50,[12],33.8 µM
same,TGI,[12],> 100 µM
same,GI50,[13],59 µM
same,TGI,[13],> 100 µM
same,GI50,[14],28.9 µM
same,TGI,[14],> 61.9 µM
same,GI50,[15],> 67.6 µM
same,TGI,[15],> 100 µM
same,GI50,[16],> 100 µM
same,TGI,[16],> 100 µM
same,GI50,[17],65.6 µM
same,TGI,[17],> 100 µM
same,GI50,[18],> 100 µM
same,TGI,[18],> 100 µM
same,GI50,[19],> 100 µM
same,TGI,[19],> 100 µM
same,GI50,[20],> 92.4 µM
same,TGI,[20],> 100 µM
same,GI50,[21],40.2 µM
same,TGI,[21],> 100 µM
same,GI50,[22],> 83.3 µM
same,TGI,[22],> 100 µM
same,GI50,[23],> 56.3 µM
same,TGI,[23],> 100 µM
same,GI50,[24],57.7 µM
same,TGI,[24],> 100 µM
same,GI50,[25],42.1 µM
same,TGI,[25],> 100 µM
same,GI50,[26],> 74.1 µM
same,TGI,[26],> 100 µM
same,GI50,[27],12 µM
same,TGI,[27],42 µM
same,GI50,[28],15.2 µM
same,TGI,[28],29 µM
same,GI50,[29],35.6 µM
same,TGI,[29],> 75.9 µM
same,GI50,[30],27.2 µM
same,TGI,[30],> 100 µM
same,GI50,[31],34.9 µM
same,TGI,[31],> 100 µM
same,GI50,[32],> 76.4 µM
same,TGI,[32],> 100 µM
same,GI50,[33],43.3 µM
same,TGI,[33],> 100 µM
same,GI50,[34],> 100 µM
same,TGI,[34],> 100 µM
same,GI50,[35],> 94.2 µM
same,TGI,[35],> 100 µM
same,GI50,[36],31.3 µM
same,TGI,[36],> 100 µM
same,GI50,[37],> 100 µM
same,TGI,[37],> 100 µM
same,GI50,[38],35.3 µM
same,TGI,[38],96.9 µM
same,GI50,[39],> 100 µM
same,TGI,[39],> 100 µM
same,GI50,[40],21.9 µM
same,TGI,[40],> 70.8 µM
same,GI50,[41],22.9 µM
same,TGI,[41],69.6 µM
same,GI50,[42],> 76.2 µM
same,TGI,[42],> 100 µM
same,GI50,[43],> 57.4 µM
same,TGI,[43],> 100 µM
same,GI50,[44],> 100 µM
same,TGI,[44],> 100 µM
same,GI50,[45],> 100 µM
same,TGI,[45],> 100 µM
same,GI50,[46],17.5 µM
same,TGI,[46],36.5 µM
same,GI50,[47],> 64.3 µM
same,TGI,[47],> 100 µM
same,GI50,[48],> 100 µM
same,TGI,[48],> 100 µM
same,GI50,[49],> 100 µM
same,TGI,[49],> 100 µM
same,GI50,[50],> 74.4 µM
same,TGI,[50],> 100 µM
same,GI50,[51],15.9 µM
same,TGI,[51],33.8 µM
same,GI50,[52],> 100 µM
same,TGI,[52],> 100 µM
same,GI50,[53],17.8 µM
same,TGI,[53],59.4 µM
same,GI50,[54],> 100 µM
same,TGI,[54],> 100 µM
same,GI50,[55],> 100 µM
same,TGI,[55],> 100 µM
same,GI50,[56],> 80.4 µM
same,TGI,[56],> 100 µM
same,GI50,[57],> 80.4 µM
same,TGI,[57],> 100 µM
same,GI50,[58],> 45.2 µM
same,TGI,[58],> 63 µM
